The structures appear in SMILES notation. ≈ marks a conversion by molar mass, not a printed value.

The values that follow come from patent US11052043B2, “Sustained-release injectable formulation” (YISSUM RESEARCH DEVELOPMENT COMPANY OF THE HEBREW …, priority 2011, dated 2021).

For series [1] the following is noted: cited from earlier work.
For series [2] the following is noted: cited from earlier work. The source holds these as a separate data set.
Series [3] in a line: Minimum inhibitory concentration (MIC) of amoxicillin. It is filed as cell-based. As to conditions: in vitro MIC multiplied by a factor of 4.

`C=CC1=C(C(=O)O)N2C(=O)[C@@H](NC(=O)/C(=N\O)c3csc(N)n3)[C@H]2SC1` [cefdinir]: the solubility of cefdinir in series [1] (30° C.) is on record as 0.43 % (w/v). With `CCN1CCN(c2cc3c(cc2F)c(=O)c(C(=O)O)cn3C2CC2)CC1` [enrofloxacin], the solubility of enrofloxacin in series [1] (25° C.) is 0.25 % (w/v).

Take `CC1(C)S[C@@H]2[C@H](NC(=O)[C@H](N)c3ccc(O)cc3)C(=O)N2[C@H]1C(=O)O` [amoxicillin]: in series [2], the “MIC value determined in vitro” value was 0.1 mg/L (≈ 0.274 µM). Besides, the “in vivo minimum inhibitory concentration (MIC) as set” value in series [3] is 0.4 mg/L.
